Patent publication US6414222B1, “Gene combinations for herbicide tolerance in corn” (Regents of the University of Minnesota, priority 1993, dated 2002)

Columns and labels:
[1] = test system: cell line 2167-9/2160-154 S-1; experiment: Callus herbicide tolerance, line S-1; type: cell-based, maize; settings: cell line S-1
Experimental: Tolerant cell line 2167-9/2160-154 S-2 (“S-2”) was characterized to evaluate: (1) the magnitude of sethoxydim tolerance; (2) cross-tolerance of haloxyfop; and (3) the biochemical basis for the tolerance. Callus tissue from S-2 that had been maintained on 10 μM sethoxydim was transferred to media containing up to 100 μM sethoxydim. One-half gram of S-2 tissue was plated on a 7 cm filter paper as a lawn overlaying 50 ml agar-solidified culture medium containing 0, 0.5, 1.0, 2.0, 5.0, 10.0, 50.0 and 100 μM sethoxydim, and cultured for two weeks. Control cell line 2167-9/2160-154 was plated similarly on medium containing the same levels of sethoxydim. The control cell line growth after two weeks was inhibited 50% at 1 μM sethoxydim.
The tolerant callus cultures were characterized to determine the magnitude of sethoxydim and haloxyfop tolerance. Callus tissue from these lines was evaluated in experiments as described above in the characterization of line 2167-9/2160-154 S-2.

[2] = test system: inbred wildtype control plants; experiment: Allelism testcross experiments, susceptible controls; type: in vivo, maize (Zea mays L.)
Experimental: Foliar applications of the herbicides were made to greenhouse- or field-grown seedlings at the three- to five-leaf stage. Herbicides were applied in a spray volume of 187 l/ha that includes 2.3 l/ha crop oil concentrate to enhance uptake. Sethoxydim and haloxyfop were applied using commercial formulations (Poast from BASF Corp and Verdict from Dow Elanco, respectively). Visual observations were recorded 14-21 days after herbicide treatments.
All F1 combinations (no reciprocals) between S1, S2, S3, H1 and H2 homozygotes were made, and these F1s were test crossed to susceptible inbred lines. The testcross progeny were grown in the greenhouse and treated with the herbicides. In Experiment 1, progeny from testcrosses with each of the ten F1 combinations were treated with 0.05 kg/ha sethoxydim for combinations involving only S lines or with 0.009 kg/ha haloxyfop for combinations involving either of the H lines. In Experiment 2, a selected subset of the F1 combinations was tested that used testcross families that were separately derived from those used in Experiment 1. Testcross progeny of S lines were treated with 0.03 kg/ha sethoxydim, and H1 and H2 progeny were treated with 0.009 kg/ha haloxyfop. In each experiment, known susceptible and heterozygous plants were included as controls.

[3] = test system: acetyl-coenzyme A carboxylase (ACCase) (EC 6.4.1.2) in maize chloroplasts; experiment: Acetyl-Coenzyme A Carboxylase (ACCase) activity of maize chloroplasts; type: biochemical
Experimental: Maize chloroplasts, isolated as described above, were suspended in buffer C (0.1 M Tricine-KOH, pH 8.0; 0.3 M glycerol, and 1 mM DTT) and homogenized in a glass tissue homogenizer. The disrupted chloroplast fraction was centrifuged at 16,000 g for 15 minutes. The supernatant was desalted on a Sephadex G-25 column (1.5×5 cm equilibrated with 0.1 M Tricine-KOH, pH 8.0; and 0.3 M glycerol) and assayed directly. ACCase activity (B. J. Nikolau et al., Arch. Biochem. Biophys., 211, 605-612 (1981)) was assayed at 30° C. in a 0.2 ml volume which contained 1 mM ATP, 3 mM acetyl coenzyme A, 2.5 mM MgCl2, 50 mM KCl, 0.5 mM DTT, and 15 mM [^14C]NaHCO3 (0.17 mCi/mmol). Reactions were initiated by addition of acetyl coenzyme A and stopped by addition of 25 μl of 12 N HCl. Product formation was determined by the radioactivity found in an acid stable fraction by liquid scintillation spectrometry. Enzyme activity was linear for 15 minutes.

SMILES: CC(Oc1ccc(Oc2ncc(C(F)(F)F)cc2Cl)cc1)C(=O)O (stereo not shown) [Haloxyfop, 2-[4-[[3-chloro-5-(trifluoromethyl)-2-pyridinyl]oxy]phenoxy]-propanoic acid]
- Fold increase in herbicide concentration that results in a 50% reduction in growth vs unselected control cell line [1]: 4^1 fold
- Fold increase in herbicide concentration that results in a 50% reduction in growth vs unselected control cell line ([1]; listed as haloxyfop): four-fold increase
- Response of wildtype control plants ([2]; 0.009 kg/ha haloxyfop): killed most, but not all
- Effect on ACCase in maize chloroplasts [3]: inhibit

SMILES: CCCC(=NOCC)C1=C(O)CC(CC(C)SCC)CC1=O (stereo not shown) [Sethoxydim, 2-[1-(ethoxyimino)-butyl]-5-[2-(ethylthio)propyl]-3-hydroxy-2-cyclohexen-1-one]
- Fold increase in herbicide concentration that results in a 50% reduction in growth vs unselected control cell line [1]: ~100 fold
- Response of inbred wildtype control plants ([2]; 0.05 kg/ha (Experiment 1) or 0.03 kg/ha (Experiment 2) sethoxydim): all inbred wildtype plants died
- Effect on ACCase in maize chloroplasts [3]: inhibit
